Values of other authors in patent publication US20050053658A1, “Extended release systems for macrolide antibiotics” (priority 2003, published 2005).

For CC[C@H]1OC(=O)[C@H](C)[C@@H](O[C@H]2C[C@@](C)(OC)[C@@H](O)[C@H](C)O2)[C@H](C)[C@@H](O[C@@H]2O[C@H](C)C[C@H](N(C)C)[C@H]2O)[C@](C)(OC)C[C@@H](C)C(=O)[C@H](C)[C@@H](O)[C@]1(C)O [Clarithromycin], the water solubility is listed as “poorly water soluble”.
